Laboratory results as given in patent US9868746B2, “Substituted 5-aminothieno[2,3-C]pyridazine-6-carboxamide analogs as positive allosteric modulators of the muscarinic acetylcholine receptor M4” (Vanderbilt University, priority 2012, dated 2018).
Read-outs that look alike come from different tables or passages of the source.

Biological target: T1, mAChR M4 (Homo sapiens, UniProt P08173)
T1 construct: expressed in transfected cells; host or cells: CHO-K1 cells stably transfected with M4 cDNA and chimeric G-protein Gqi5
T1 sequence (P08173 1-479): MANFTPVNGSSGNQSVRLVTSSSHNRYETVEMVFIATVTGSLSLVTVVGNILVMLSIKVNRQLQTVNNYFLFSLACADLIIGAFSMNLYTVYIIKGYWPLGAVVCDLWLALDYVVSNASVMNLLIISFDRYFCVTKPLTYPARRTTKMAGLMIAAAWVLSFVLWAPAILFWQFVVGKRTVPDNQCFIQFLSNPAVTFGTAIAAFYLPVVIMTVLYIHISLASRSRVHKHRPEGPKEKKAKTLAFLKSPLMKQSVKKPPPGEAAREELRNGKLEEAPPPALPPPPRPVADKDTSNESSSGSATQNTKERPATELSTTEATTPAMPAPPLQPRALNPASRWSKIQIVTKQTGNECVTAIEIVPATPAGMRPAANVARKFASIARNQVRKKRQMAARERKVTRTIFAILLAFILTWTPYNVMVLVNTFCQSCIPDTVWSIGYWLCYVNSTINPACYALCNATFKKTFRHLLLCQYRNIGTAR
Test: mAChR M4 cell-based functional assay (calcium mobilization, potentiation of EC20 acetylcholine response)

[1] = mAChR M4 cell-based functional assay, >10,000 estimated for low potency compounds without plateau, read-out: EC50

Structure (SMILES)	Emax at 30 µM (% ACh maximum at 30 μM) [%]	EC50 [1] [nM]	Emax (%)* (% ACh maximum at 30 μM) [%]	EC50 (EC50 (nM)) [nM]
COc1cccc(S(=O)(=O)C2CN(C(=O)c3sc4nnc(C)c(C)c4c3N)C2)c1 [Example B433]	34	590		
Cc1nnc2sc(C(=O)N3CC(NS(=O)(=O)c4cn(C)cn4)C3)c(N)c2c1C [Example B174]	51	6700		
Cc1nnc2sc(C(=O)N3CC4CN(c5ccc(C#N)nc5)CC4C3)c(N)c2c1C (centres unmarked) [Example B436]	49	980		
Cc1nnc2sc(C(=O)N3CC4(CN(C(=O)c5ccccc5)C4)C3)c(N)c2c1C [Example B404]	50	> 10000		
Cc1nnc2sc(C(=O)N3CC(F)(c4ccc(-c5cnn(C)c5)cc4)C3)c(N)c2c1C [Example B319]	51	390		
Cc1nnc2sc(C(=O)NCc3ccc(CN4CCCCC4)cc3)c(N)c2c1C [Example B504]	68	80		
Cc1nnc2sc(C(=O)NCc3ccc(-c4ccccc4O)cc3)c(N)c2c1C [Example B494]	75	190		
Cc1nnc2sc(C(=O)NCC3CC3)c(N)c2c1C [Example B6]	89	500		
Cc1nnc2sc(C(=O)NCc3cc(F)c(F)cc3F)c(N)c2c1C [Example B45]	71	45		
CS(=O)(=O)c1ccc(CNC(=O)c2sc3nnc(Cl)cc3c2N)cc1 [Example B76]	55	490		
Cc1ccc(S(=O)(=O)N2CCCN(C(=O)c3sc4nnc(C)c(C)c4c3N)CC2)cc1 [Example B114]	48	1600		
Cc1nnc2sc(C(=O)NCc3ccc(C#N)cc3)c(N)c2c1C [Example B431]	56	120		
Cc1nnc2sc(C(=O)NC3CN(C(=O)c4ccc(OC(F)(F)F)cc4)C3)c(N)c2c1C [Example B409]	65	120		
Cc1nnc2sc(C(=O)NCc3ccccc3)c(N)c2c1C [Example B9]	97	170		
Cc1nnc2sc(C(=O)NCc3ccc(-c4ccc(F)nc4F)cc3)c(N)c2c1C [Example B495]	72	210		
Cc1nnc2sc(C(=O)NC3CN(c4ncc(-c5ccccc5)s4)C3)c(N)c2c1C [Example B426]	67	440		
Cc1nnc2sc(C(=O)NC3CN(C(=O)NCCCN4CCOCC4)C3)c(N)c2c1C [Example B337]	55	600		
Cc1nnc2sc(C(=O)NC3CN(C(=O)C4CCCCC4)C3)c(N)c2c1C [Example B123]	97	130		
Cc1nnc2sc(C(=O)N3CC(F)(c4ccc(S(=O)(=O)CF)cc4)C3)c(N)c2c1C [Example B393]	44	400		
COC1(c2ccccc2)CN(C(=O)c2sc3nnc(C)c(C)c3c2N)C1 [Example B170]	60	470		
Cc1nnc2sc(C(=O)NC34CC(C3)C4)c(N)c2c1C [Example B248]	81	630		
CCCCOc1ccc(C(=O)N2CCC(NC(=O)c3sc4nnc(C)c(C)c4c3N)C2)cc1 (centres unmarked) [Example B212]	76	870		

Structure (SMILES)	Emax at 30 µM (% ACh maximum at 30 μM) [%]	EC50 [1] [nM]	Emax (%)* (% ACh maximum at 30 μM) [%]	EC50 (EC50 (nM)) [nM]
Cc1nnc2sc(C(=O)N3CCC(NC(=O)N4CCOCC4)C3)c(N)c2c1C (centres unmarked) [Example B201]	56	> 10000		
Cc1nnc2sc(C(=O)N3CCC(c4ccncc4)C3)c(N)c2c1C (centres unmarked) [Example B156]	53	2200		
Cc1nnc2sc(C(=O)N3CCC(NC(=O)c4ccncc4)C3)c(N)c2c1C (centres unmarked) [Example B204]	64	5000		
Cc1cc(F)ncc1-c1ccc(CNC(=O)c2sc3nnc(C)c(C)c3c2N)cc1 [Example B498]	82	330		
Cc1nnc2sc(C(=O)NCc3ccc(-n4ccccc4=O)c(F)c3)c(N)c2c1C [Example B483]	69	47		
Cc1nnc2sc(C(=O)NCc3ccc(C(F)F)nc3)c(N)c2c1C [Example B420]	71	270		
Cc1nnc2sc(C(=O)N3CC(Sc4ccccc4)C3)c(N)c2c1C [Example B405]	46	92		
COc1cccc(C(=O)N2CC(NC(=O)c3sc4nnc(C)c(C)c4c3N)C2)c1 [Example B127]	82	85		
COc1ccc(NC(=O)N2CC(NC(=O)c3sc4nnc(C)c(C)c4c3N)C2)cc1 [Example B371]	61	48		
[2H]C([2H])(NC(=O)c1sc2nnc(C)c(C)c2c1N)c1ccc(OC)cc1 [Example B37]	68	32		
Cc1nnc2sc(C(=O)NCc3cccc(OC(F)(F)F)c3)c(N)c2c1C [Example B410]	53	200		
CCCCCC(=O)NC1CCN(C(=O)c2sc3nnc(C)c(C)c3c2N)C1 (centres unmarked) [Example B218]	61	5000		
COc1ccc(SC2CN(C(=O)c3sc4nnc(C)c(C)c4c3N)C2)cc1 [Example B416]	61	110		
Cc1nnc2sc(C(=O)N3CCC(c4ccccc4)C3C)c(N)c2c1C (centres unmarked) [Example B163]	54	240		
Cc1nnc2sc(C(=O)NCCNC(=O)Oc3ccccc3)c(N)c2c1C [Example B354]		2000	73	
Cc1nnc2sc(C(=O)NC3CCN(S(=O)(=O)c4cccc(F)c4)C3)c(N)c2c1C (centres unmarked) [Example B253]	71	390		
Cc1ccc(S(=O)(=O)N2CCC(NC(=O)c3sc4nnc(C)c(C)c4c3N)C2)cc1 (centres unmarked) [Example B244]	79	580		
Cc1nnc2sc(C(=O)NCc3ccc(-c4cnn(C)c4)cc3)c(N)c2c1C [Example B447]	64	> 10000		
Cc1nnc2sc(C(=O)N3CC(F)(c4ccc(S(=O)(=O)C(F)F)cc4)C3)c(N)c2c1C [Example B377]	50	72		
Cc1nnc2sc(C(=O)NCc3ccc4c(c3)OC(F)(F)O4)c(N)c2c1C [Example B42]	76	26		
Cc1nnc2sc(C(=O)NCc3ccc(-c4cccc5cccnc45)cc3)c(N)c2c1C [Example B453]	74	240		
Cc1nnc2sc(C(=O)Nc3nccs3)c(N)c2c1C [Example B70]	37	1200		

Structure (SMILES)	Emax at 30 µM (% ACh maximum at 30 μM) [%]	EC50 [1] [nM]	Emax (%)* (% ACh maximum at 30 μM) [%]	EC50 (EC50 (nM)) [nM]
Cc1nnc2sc(C(=O)NC3CCN(c4ccc(C(F)(F)F)cc4)C3)c(N)c2c1C (centres unmarked) [Example B283]	76	180		
Cc1nnc2sc(C(=O)NC3CN(C(=O)Oc4ccc(C(C)C)cc4)C3)c(N)c2c1C [Example B348]	72	54		
Cc1nnc2sc(C(=O)NCc3ccc(-n4ccnc4)cc3)c(N)c2c1C [Example B490]	61	20		
Cc1nnc2sc(C(=O)N3CC4CN(C(=O)OC(C)(C)C)CC4C3)c(N)c2c1C (centres unmarked) [Example B259]	53	900		
Cc1nnc2sc(C(=O)NC3CN(C(=O)c4ccccn4)C3)c(N)c2c1C [Example B126]	92	290		
Cc1nnc2sc(C(=O)NC3CN(S(C)(=O)=O)C3)c(N)c2c1C [Example B80]	68	210		
Cc1nnc2sc(C(=O)NCc3ccc(S(=O)(=O)C(F)F)cc3Cl)c(N)c2c1C [Example B507]	66	510		
Cc1nnc2sc(C(=O)NCc3ccc(S(=O)(=O)C4CC4)cc3)c(N)c2c1C [Example B92]	53			23
Cc1nnc2sc(C(=O)NCc3ccc(CN(C)C)cc3)c(N)c2c1C [Example B328]	73	130		
Cc1nnc2sc(C(=O)NCCN3CCOCC3)c(N)c2c1C [Example B28]	54	> 10000		
Cc1nnc2sc(C(=O)NC3CN(C(=O)c4ccccc4F)C3)c(N)c2c1C [Example B396]	70	200		
Cc1cc(-c2ccc(CNC(=O)c3sc4nnc(C)c(C)c4c3N)cc2)cnc1F [Example B484]	63	110		
COc1ccc(CNC(=O)c2sc3nnc(C)c(C)c3c2N)cc1 [Example B16]	99	250		
Cc1cncc(NC(=O)c2sc3nnc(C)c(C)c3c2N)c1 [Example B71]	31	460		
Cc1nnc2sc(C(=O)N3CC(F)(c4ccccn4)C3)c(N)c2c1C [Example B303]	57	500		
CCS(=O)(=O)N1CC(NC(=O)c2sc3nnc(C)c(C)c3c2N)C1 [Example B142]	77	290		
Cc1nnc2sc(C(=O)NC3C4CC5CC(C4)CC3C5)c(N)c2c1C (centres unmarked) [Example B281]	62	2000		
COc1ccccc1C(=O)N1CC(NC(=O)c2sc3nnc(C)c(C)c3c2N)C1 [Example B397]	64	430		
COC1CCN(C(=O)c2sc3nnc(C)c(C)c3c2N)C1 (centres unmarked) [Example B272]	55	> 10000		
Cc1nnc2sc(C(=O)NCc3ncccn3)c(N)c2c1C [Example B3]	46	> 10000		
